This is an account of results in patent US6576662B2, “Compounds having anticancer activity : process for their preparation and pharmaceutical compositions containing them” (Dr. Reddy's Laboratories Limited, priority 2000, dated 2003).

The subject of data set [1] is HIV-1/MN. Put plainly: Anti HIV activity, P24 antigen in infected PM-1 cells. The class given is cell-based. To be noted: Concentration 1 μM; PM-1 cells infected with HIV-1/MN, 96 h; P24 antigen corrected by MTT. As to the method: Human CD4+T cell line PM-1 used in the assay was cultured in RPMI-1640 medium containing 10% Fetal bovine serum, 2 g/L sodium bicarbonate, 100,000 units/L Penicillin-G and 100 mg/L streptomycin. Healthy PM-1 cells were plated on the first day in a 96 well plate at […]. After 24 h HIV-1/MN was added to the culture and incubated for 2 h for infection. Cells were washed twice with PBS to remove the virus in the culture. Different concentrations of DRF compounds ranging from 10^−4 to 10^−8M were added to the culture and incubated for 96 h. The viability of cells was then assessed by standard MTT assay and the viral antigen P24 levels were estimated by ELSA method. Based on the MTT assay values the P 24 antigen values were corrected. All the samples were tested in triplicates and the average was used for calculations. AZT was used as standard compound for comparision.

The subject of data set [2] is P388 lymphocytic leukemia. To be noted: P388 cells; cited from earlier work.
Data set [3] concerns KB. To be noted: KB cells; cited from earlier work.
The subject of data set [4] is DU145. Put plainly: in vitro anti-cancer screen, Sulforhodamine B method. Format: cell-based, human. The note with it: PROSTATE: DU145, 48 h incubation, read-out: GROWTH INHIBITION (GI 50). The protocol: (§1) Each test compound was screened against a battery of cell lines representing eight different types of cancers. In a typical procedure, 1×10^4 cells were seeded into each well of 96 well plate in 100 μL volume of RPMI 1640 medium containing antibiotics and 10% FCS.
(§2) The plates were incubated at 37° C. in presence of CO2. After 24 h, test compounds were evaluated at five 10 fold dilutions ranging from 100 to 0.01 μM. To each test well 100 μL of test compound solution was added and medium with vehicle was added to control wells and the plates were further incubated. After 48 h of incubation, plates were terminated by Sulforhodamine B method.
(§3) The optical density which is proportional to protein mass, is then-read by automated spectrophotometric plate reader at a wavelength of 515 nm.
On the technique in general: The SRB assay estimates cell density from bound dye.

The test system of data set [5] is SKOV-3. The description is as above. Format: cell-based, human. To be noted: OVARIAN: SKOV-3, 48 h incubation, read-out: GROWTH INHIBITION (GI 50). As to the method:
as §1, §2, §3

Data set [6] concerns H522. The data set is described as above. Format: cell-based, human. To be noted: LUNG: H522, 48 h incubation, read-out: GROWTH INHIBITION (GI 50). As to the method:
as §1, §2, §3

Data set [7] has as its system M14. The description is as above. Format: cell-based, human. To be noted: MELANOMA: M14; 48 h incubation; read-out: GROWTH INHIBITION (GI 50). As to the method: as §1, §2, §3
Data set [8] relates to A498. The data set is described as above. Format: cell-based, human. The note with it: RENAL: A498; 48 h incubation; read-out: GROWTH INHIBITION (GI 50). As to the method: as §1, §2, §3
In data set [9] the test system is MCF-7/ADR. The data set is described as above. To be noted: BREAST: MCF-7/ADR, 48 h incubation, read-out: GROWTH INHIBITION (GI 50). The class given is cell-based, human. As to the method:
as §1, §2, §3

Data set [10] deals with SW-620. The description is as above. Format: cell-based, human. The note with it: COLON: SW-620, 48 h incubation, read-out: GROWTH INHIBITION (GI 50). As to the method: as §1, §2, §3
The test system of data set [11] is U251. Described as above. To be noted: CNS: U251, 48 h incubation, read-out: GROWTH INHIBITION (GI 50). The class given is cell-based, human. The protocol:
as §1, §2, §3

Data set [12] has as its system Human lymphocytes. In words: Lymphocyte proliferation, tritiated thymidine incorporation. The class given is cell-based. To be noted: Concentration 1 μM; human lymphocytes with Phytohemagglutitin A. As to the method:
Human lymphocytes were isolated from whole blood by using Ficoll Hypaque Plus (Amersham). On day one, 1 million lymphocytes were seeded into each well of 96 well plate in 100 μL volume of RPMI 1640 medium containing 10% FCS and Phytohemagglutitin A at 1 μg/well concentration. Plates were incubated at 37° C. in CO2 incubator for 24 h. Test compounds at various concentrations were added to test wells and only medium with vehicle was added to control wells. After 48 h of incubation […] of tritiated thymidine was added to each well. After 24 h of thymidine addition the cells were harvested and the incorporated radioactivity was determined. Stimulation Index (SI) was calculated using the formula, [formula]
A^T=Average CPM of treated wells,
A^C=Average CPM of control wells.
Background: Incorporation of labelled thymidine or its analogues reports DNA synthesis.

For data set [13], the system named is HT29. In words: in vitro anti-cancer screen, Sulforhodamine B method. The class given is cell-based, human. The note with it: Homo sapiens, HT-29; COLON: HT29; 48 h incubation; read-out: GROWTH INHIBITION (GI 50). The protocol: as §1, §2, §3
Data set [14] has as its system UACC62. Described as above. The note with it: Homo sapiens, UACC-62; MELANOMA: UACC62; 48 h incubation; read-out: GROWTH INHIBITION (GI 50). Format: cell-based, human. As to the method:
as §1, §2, §3

Data set [15] deals with MCF7. The description is as above. The class given is cell-based, human. To be noted: Homo sapiens; BREAST: MCF7; 48 h incubation; read-out: GROWTH INHIBITION (GI 50). As to the method: as §1, §2, §3
The test system of data set [16] is PA1. The data set is described as above. Format: cell-based, human. To be noted: Homo sapiens, PA-1; OVARIAN: PA1; 48 h incubation; read-out: GROWTH INHIBITION (GI 50). The protocol: as §1, §2, §3
Data set [17] has as its system OVCAR. The data set is described as above. The class given is cell-based. To be noted: Homo sapiens; OVARIAN: OVCAR; 48 h incubation; read-out: GROWTH INHIBITION (GI 50). As to the method: as §1, §2, §3
The test system of data set [18] is PC-3. The data set is described as above. The class given is cell-based. To be noted: Homo sapiens; PROSTATE: PC-3; 48 h incubation; read-out: GROWTH INHIBITION (GI 50). The protocol:
as §1, §2, §3

Data set [19] deals with ACHN. Described as above. Format: cell-based. The note with it: Homo sapiens; RENAL: ACHN; 48 h incubation; read-out: GROWTH INHIBITION (GI 50). The protocol:
as §1, §2, §3

Data set [20] has as its system HIV-1(IIIB). The note with it: cited from earlier work.

Read-outs that look alike come from different tables or passages of the source.

As a reminder, the melting point is the temperature, or range, at which the solid turns liquid.

In the case of `Cc1cn([C@H]2C[C@H](N=[N+]=[N-])[C@@H](CO)O2)c(=O)[nH]c1=O` [AZT, reference compound], in data set [1], the “Percentage Inhibition” value was 72.47.
As to `C=C1CC[C@@H]2[C@](C)(CO)[C@H](O)CC[C@@]2(C)[C@@H]1C/C=C1/C(=O)OC[C@H]1O` [Andrographolide], the cytotoxic activity entry in data set [2] and in [3] was “potent cytotoxic activity” throughout.
On to `C=C1CCC2C(C)(COC(C)=O)C(OC(C)=O)CCC2(C)C1CC(NCc1ccccc1)C1=CCOC1=O` (stereo not shown) [Example 1, 3,19-Diacetyl-12-(N-benzylamino)-14-deoxy andrographolide], for which the GI50 in data set [4] came out at 7 µM; in data set [5] it was 0.3 µM; in [6], 9 µM; in data set [7] it was 5 µM; in [8] it was 5 µM; in data set [9], 8 µM. Further, the GI50 in data set [10] is 4 µM; in [11], 0.2 µM. In addition, in data set [12], the “Stimulation Index (SI)” value was 123. The “Percentage Inhibition” value in data set [1] came out at 73.94.
The compound `C=C1CCC2[C@]3(C)COC(C)(c4ccccc4)O[C@@H]3CC[C@]2(C)[C@H]1CC(C1=CCOC1=O)N1CCCC1C(=O)OC` (stereo partly shown) [Example 23, 14-Deoxy-12-(O-methylprolino)-3,19-O-(1-phenylethylidene)andrographolide] yielded a melting point of 141 to 143 °C. Besides, the GI50 in data set [4] (Homo sapiens, DU-145) stood at 11 µM. Further, the GI50 in [5] (Homo sapiens, SK-OV-3) stood at 4 µM. In addition, in data set [6] (Homo sapiens, NCI-H522), the GI50 amounted to 15 µM. The GI50 in data set [13] stood at 3 µM. Besides, the GI50 in data set [14] was determined as 2 µM. Also, in data set [15], the GI50 worked out at 4 µM. In [9] (Homo sapiens, NCI/ADR-RES), the GI50 was 2 µM. Besides, the GI50 in data set [10] (Homo sapiens) worked out at 2 µM. Also, the GI50 in data set [11] (Homo sapiens, U-251) worked out at 2 µM. The GI50 in [16] is 1 µM. Further, the GI50 in [17] is 1 µM. The GI50 in data set [18] was determined as 2 µM. Besides, the GI50 in [19] was determined as 13 µM.
Turning to “dehydroandrographolide succinic acid monoester [DASM]”, the “minimal concentration inhibitory to HIV-1(IIIB)” value in data set [20] is 1.6 to 3.1 µg/mL.
